Data from patent US9132140B2, “Boronic acid derivatives and therapeutic uses thereof” (Rempex Pharmaceuticals, Inc., priority 2013, dated 2015).

What was measured:
NDM-1 = NDM-1 (Klebsiella pneumoniae, UniProt C7C422); assay: biochemical; conditions: substrate imipenem 100 μM
CTX-M-14 = CTX-M-14 (Escherichia coli, UniProt Q9L5C7); assay: Inhibition of purified beta-lactamase, nitrocefin cleavage; type: biochemical
Experimental: (§1) Purified enzymes were mixed with various concentrations of inhibitors in reaction buffer and incubated for 10 min at room temperature. Nitrocefin was added and substrate cleavage profiles were recorded at 490 nm every 10 sec for 10 min.

OXA-48 = OXA-48 (Klebsiella pneumoniae, UniProt Q6XEC0); assay: as above; type: biochemical; conditions: read-out: Ki (OXA-48, NCF)
Chain of OXA-48 (Q6XEC0 23-265, looked up): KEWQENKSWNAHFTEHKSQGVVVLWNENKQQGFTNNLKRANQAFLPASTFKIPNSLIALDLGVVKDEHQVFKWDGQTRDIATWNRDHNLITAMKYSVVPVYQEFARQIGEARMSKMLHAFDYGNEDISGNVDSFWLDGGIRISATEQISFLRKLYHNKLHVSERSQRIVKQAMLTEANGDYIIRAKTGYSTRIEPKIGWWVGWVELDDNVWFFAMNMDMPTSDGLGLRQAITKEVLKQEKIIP
Experimental: as §1

SHV-12 = SHV-12 (Klebsiella pneumoniae, UniProt P0AD64, E235K/G234S/L31Q); assay: as above; type: biochemical; conditions: read-out: Ki (SHV-12, NCF)
Chain of SHV-12 (P0AD64 22-286 L31Q/G234S/E235K): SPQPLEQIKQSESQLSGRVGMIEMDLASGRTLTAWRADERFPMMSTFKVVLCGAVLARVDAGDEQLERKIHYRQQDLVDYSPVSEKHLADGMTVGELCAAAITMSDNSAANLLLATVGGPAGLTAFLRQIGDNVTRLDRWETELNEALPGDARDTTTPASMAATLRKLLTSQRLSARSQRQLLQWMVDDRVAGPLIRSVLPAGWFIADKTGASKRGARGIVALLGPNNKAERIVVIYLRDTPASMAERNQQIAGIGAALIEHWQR
Experimental: as §1

ECL1026 (KPC) = type: cell-based, Enterobacter cloacae
Source text: (§2) Several strains simultaneously expressing both class A and class B carbapenemases, which were constructed using conjugation, were also included in the panel.

ECL1036 (KPC) = type: cell-based, Enterobacter cloacae
Source text: as §2

ECL1055 (KPC) = type: cell-based, Enterobacter cloacae
Source text: as §2

[1] = tested on: ECL1057 (NDM-1, TEM-1, CTX-M-15); type: cell-based, Enterobacter cloacae
Source text: as §2

ECLM1013 (NDM, KPC) = type: cell-based, Enterobacter cloacae
Source text: as §2

ECLM1014 (NDM, KPC) = type: cell-based, Enterobacter cloacae
Source text: as §2

ECLM1015 (NDM, KPC) = type: cell-based, Enterobacter cloacae
Source text: as §2

ECLM1016 (NDM, KPC) = type: cell-based, Enterobacter cloacae
Source text: as §2

ECLM1017 (VIM, KPC) = type: cell-based, Enterobacter cloacae
Source text: as §2

ECLM1018 (VIM, KPC) = type: cell-based, Enterobacter cloacae
Source text: as §2

EC1061 (NDM-1, CMY-6) = type: cell-based, Escherichia coli
Source text: as §2

[2] = tested on: EC1064 (NDM-1, CMY-6, CTX-M-15); type: cell-based, Escherichia coli
Source text: as §2

EC1065 (IMP-1 CMY-2) = type: cell-based, Escherichia coli
Source text: as §2

EC1068 (VIM-1) = type: cell-based, Escherichia coli
Source text: as §2

Chain of NDM-1 (C7C422 29-270, looked up, species assumed): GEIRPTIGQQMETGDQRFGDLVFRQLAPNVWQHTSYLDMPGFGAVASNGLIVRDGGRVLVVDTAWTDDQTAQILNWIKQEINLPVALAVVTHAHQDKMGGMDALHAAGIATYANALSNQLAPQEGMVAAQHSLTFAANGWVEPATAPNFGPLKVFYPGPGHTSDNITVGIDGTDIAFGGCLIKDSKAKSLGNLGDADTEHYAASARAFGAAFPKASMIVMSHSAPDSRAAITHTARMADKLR
Chain of CTX-M-14 (Q9L5C7 entry or part of it): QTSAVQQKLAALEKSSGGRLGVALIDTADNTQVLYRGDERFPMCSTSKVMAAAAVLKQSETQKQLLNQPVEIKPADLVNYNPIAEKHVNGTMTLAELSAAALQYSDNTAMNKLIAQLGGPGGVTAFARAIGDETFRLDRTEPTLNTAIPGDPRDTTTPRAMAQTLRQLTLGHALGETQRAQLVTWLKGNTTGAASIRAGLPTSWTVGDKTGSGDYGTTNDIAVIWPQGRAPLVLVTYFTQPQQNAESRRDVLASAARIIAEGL

Nn1cnnc1S[C@H]1Cc2cccc(C(=O)O)c2OB1O [Compound 14, (R)-3-(4-amino-4H-1,2,4-triazol-3-ylthio)-2-hydroxy-3,4-dihydro-2H-benzo[e][1,2]oxaborinine-8-carboxylic acid]
Ki (NDM-1): 10 to 100 nM
Ki (CTX-M-14): < 100 nM
Ki (OXA-48): < 100 nM
Ki (SHV-12): < 100 nM
Imipenem + 14 MIC (ECL1026 (KPC)): X (key: X: MIC of less than 1 μg/mL; Y: MIC of 1 μg/mL to 10 μg/mL; Z: MIC of greater than 10 μg/mL)
Meropenem + 14 MIC (ECL1026 (KPC)): X (key: X: MIC of less than 1 μg/mL; Y: MIC of 1 μg/mL to 10 μg/mL; Z: MIC of greater than 10 μg/mL)
Imipenem + 14 MIC (ECL1036 (KPC)): X (key: X: MIC of less than 1 μg/mL; Y: MIC of 1 μg/mL to 10 μg/mL; Z: MIC of greater than 10 μg/mL)
Meropenem + 14 MIC (ECL1036 (KPC)): X (key: X: MIC of less than 1 μg/mL; Y: MIC of 1 μg/mL to 10 μg/mL; Z: MIC of greater than 10 μg/mL)
Imipenem + 14 MIC (ECL1055 (KPC)): X (key: X: MIC of less than 1 μg/mL; Y: MIC of 1 μg/mL to 10 μg/mL; Z: MIC of greater than 10 μg/mL)
Meropenem + 14 MIC (ECL1055 (KPC)): X (key: X: MIC of less than 1 μg/mL; Y: MIC of 1 μg/mL to 10 μg/mL; Z: MIC of greater than 10 μg/mL)
Imipenem + 14 MIC [1]: Y (key: X: MIC of less than 1 μg/mL; Y: MIC of 1 μg/mL to 10 μg/mL; Z: MIC of greater than 10 μg/mL)
Meropenem + 14 MIC [1]: Z (key: X: MIC of less than 1 μg/mL; Y: MIC of 1 μg/mL to 10 μg/mL; Z: MIC of greater than 10 μg/mL)
Imipenem + 14 MIC (ECLM1013 (NDM, KPC)): X (key: X: MIC of less than 1 μg/mL; Y: MIC of 1 μg/mL to 10 μg/mL; Z: MIC of greater than 10 μg/mL)
Meropenem + 14 MIC (ECLM1013 (NDM, KPC)): X (key: X: MIC of less than 1 μg/mL; Y: MIC of 1 μg/mL to 10 μg/mL; Z: MIC of greater than 10 μg/mL)
Imipenem + 14 MIC (ECLM1014 (NDM, KPC)): X (key: X: MIC of less than 1 μg/mL; Y: MIC of 1 μg/mL to 10 μg/mL; Z: MIC of greater than 10 μg/mL)
Meropenem + 14 MIC (ECLM1014 (NDM, KPC)): X (key: X: MIC of less than 1 μg/mL; Y: MIC of 1 μg/mL to 10 μg/mL; Z: MIC of greater than 10 μg/mL)
Imipenem + 14 MIC (ECLM1015 (NDM, KPC)): X (key: X: MIC of less than 1 μg/mL; Y: MIC of 1 μg/mL to 10 μg/mL; Z: MIC of greater than 10 μg/mL)
Meropenem + 14 MIC (ECLM1015 (NDM, KPC)): X (key: X: MIC of less than 1 μg/mL; Y: MIC of 1 μg/mL to 10 μg/mL; Z: MIC of greater than 10 μg/mL)
Imipenem + 14 MIC (ECLM1016 (NDM, KPC)): X (key: X: MIC of less than 1 μg/mL; Y: MIC of 1 μg/mL to 10 μg/mL; Z: MIC of greater than 10 μg/mL)
Meropenem + 14 MIC (ECLM1016 (NDM, KPC)): X (key: X: MIC of less than 1 μg/mL; Y: MIC of 1 μg/mL to 10 μg/mL; Z: MIC of greater than 10 μg/mL)
Imipenem + 14 MIC (ECLM1017 (VIM, KPC)): X (key: X: MIC of less than 1 μg/mL; Y: MIC of 1 μg/mL to 10 μg/mL; Z: MIC of greater than 10 μg/mL)
Meropenem + 14 MIC (ECLM1017 (VIM, KPC)): X (key: X: MIC of less than 1 μg/mL; Y: MIC of 1 μg/mL to 10 μg/mL; Z: MIC of greater than 10 μg/mL)
Imipenem + 14 MIC (ECLM1018 (VIM, KPC)): Y (key: X: MIC of less than 1 μg/mL; Y: MIC of 1 μg/mL to 10 μg/mL; Z: MIC of greater than 10 μg/mL)
Meropenem + 14 MIC (ECLM1018 (VIM, KPC)): X (key: X: MIC of less than 1 μg/mL; Y: MIC of 1 μg/mL to 10 μg/mL; Z: MIC of greater than 10 μg/mL)
Imipenem + 14 MIC (EC1061 (NDM-1, CMY-6)): X (key: X: MIC of less than 1 μg/mL; Y: MIC of 1 μg/mL to 10 μg/mL; Z: MIC of greater than 10 μg/mL)
Meropenem + 14 MIC (EC1061 (NDM-1, CMY-6)): X (key: X: MIC of less than 1 μg/mL; Y: MIC of 1 μg/mL to 10 μg/mL; Z: MIC of greater than 10 μg/mL)
Imipenem + 14 MIC [2]: X (key: X: MIC of less than 1 μg/mL; Y: MIC of 1 μg/mL to 10 μg/mL; Z: MIC of greater than 10 μg/mL)
Meropenem + 14 MIC [2]: Y (key: X: MIC of less than 1 μg/mL; Y: MIC of 1 μg/mL to 10 μg/mL; Z: MIC of greater than 10 μg/mL)
Imipenem + 14 MIC (EC1065 (IMP-1 CMY-2)): X (key: X: MIC of less than 1 μg/mL; Y: MIC of 1 μg/mL to 10 μg/mL; Z: MIC of greater than 10 μg/mL)
Meropenem + 14 MIC (EC1065 (IMP-1 CMY-2)): X (key: X: MIC of less than 1 μg/mL; Y: MIC of 1 μg/mL to 10 μg/mL; Z: MIC of greater than 10 μg/mL)
Imipenem + 14 MIC (EC1068 (VIM-1)): X (key: X: MIC of less than 1 μg/mL; Y: MIC of 1 μg/mL to 10 μg/mL; Z: MIC of greater than 10 μg/mL)
Meropenem + 14 MIC (EC1068 (VIM-1)): X (key: X: MIC of less than 1 μg/mL; Y: MIC of 1 μg/mL to 10 μg/mL; Z: MIC of greater than 10 μg/mL)
